Literature values, collected in patent publication US20070036851A1, “Acid labile drug compositions” (priority 2002, published 2007).

Conditions: in vitro, water, pH of about 6; colour changes from clear to yellow, then brown, then purple

- stability at acidic pH (drug degradation): quickly cyclizes
Compound: COc1ccc2[nH]c([S+]([O-])Cc3ncc(C)c(OC)c3C)nc2c1 (stereo not shown) [omeprazole]
